We go through one compound from US20130184316A1, “METHODS FOR DIAGNOSING AND TREATING CONCUSSIVE DISORDERS” (priority 2010, published 2013).

The test system of test [1] is subject with PCS. As to the kind of experiment: California Verbal Learning Test II (CVLT). Format: in vivo, human. The protocol: A single subject, prospective, double blind, placebo controlled trial of 4AP was then conducted in this individual. IRB approvals were obtained from all participating institutions and Subject gave written informed consent for all parts of the study. After a 4-week medication washout period, the Subject was randomly assigned a week's course of placebo, followed by a weeklong medication washout period, followed by another week on 4-AP (10 mg twice daily). Based on the medication half-life, a one week washout period was presumed to be sufficient. Subject and assessors were blinded to treatment allocation.
Measurements conducted at identical times at baseline and on each of the subsequent 3 weeks of the study included: • Balance and mobility assessed by Hi-Mat test (Arch. Phys. Med. Rehabil. 2006, 87(3), 437-442; hereby incorporated by reference in its entirety). • Subjective symptom assessment using the Rivermead Post-Concussion Questionnaire (Clin. Rehabil. 2005, 19(8), 878-887; hereby incorporated by reference in its entirety). • Neuropsychological assessment, consisting of the digit span and cancellation tests from the Wechsler Adult Intelligence Scale, 4th edition (Coalson, D. L., Engi-Raiford, S. Wechsler Adult Intelligence Scale, 4th Ed., in Technical and Interpretive Manual, 4th Ed., San Antonio: Pearson (2008); hereby incorporated by reference in its entirety), the California Verbal Learning Test II (CVLT) (Delis, D. C., Kramer, J. H., Kaplan, E., Ober, B. A. in CVLT-II Manual, San Antonio: The Psychological Corporation (2000); hereby incorporated by reference in its entirety), the Verbal Fluency Test (Connors Continuous Performance Test Computer II Program Version 5 Users Manual, Toronto: Multi-Health Systems, Inc. (2002); hereby incorporated by reference in its entirety), and the Connors Continuous Performance Test (J. Nervous Ment. Dis. 1985, 173(6), 353-357; hereby incorporated by reference in its entirety). • Videonystagmography (VNG) and rotary chair (RC) vestibular testing […]

Test [2] concerns subject with PCS. As to the kind of experiment: Neurofeedback evaluation. It is filed as in vivo, human. The conditions noted are these: following treatment of 4AP.
The test system of test [3] is patients with type-2 episodic ataxia (EA2). Conditions: literature reports; cited from earlier work.
Test [4] concerns EA2 mutant Purkinje cells. The conditions noted are these: literature (J. Neurosci. 2010), cited from earlier work.
The test system of the next test is demyelinated axons. Conditions: experimental and clinical settings, literature; cited from earlier work.

Take `Nc1ccncc1` [4-AP, 4-Amino pyridine]: the “CVLT-II immediate, percentile” value in the test with subject with PCS [1] (session 4 Active: blinded, one week on 4-AP 10 mg twice daily, baseline 27, placebo 21, washout 65) is on record as 18 percentile; with subject with PCS [1] (session 5 1st Open: open-label 4AP 10 mg twice daily, 5 weeks after formal study), 69 percentile; in the test on subject with PCS [1] (session 6 2nd Open: open-label 4AP 10 mg twice daily, 9 weeks after formal study), 93 percentile. In the test with subject with PCS [2], the “Neurofeedback parameters (neurosynchronization, restoration of brain activity)” value was “dramatic and unexpected improvements”. Moreover, in test [3], the “Symptoms of EA2 (including downbeat nystagmus)” value is “both relieved and prevented”. In addition, the “Purkinje cell excitability, spontaneous activity or firing rate” value in test [4] (models of episodic ataxia) is on record as “does not increase”. In addition, the “Functional consequence of treatment in EA2 mutant Purkinje cells” value in test [4] (via blockage of potassium channels) is “restoration of the precision of pacemaking”. Also, in the test on demyelinated axons, the “Conduction in demyelinated axons” value is reported as “improve conduction”.
